In DBAASP:
Values after ≈ are worked out from the molar mass of the structure shown. Each block holds one compound with its values, some of them ahead of it.

Legend:
Experiment in all cases: ≥ marks a high value that may be exact or a test limit, other limits are often not marked, values filed in µg/mL are converted to µM
[1] = test system: Mannheimia haemolytica 82-25
[2] = test system: Escherichia coli
[3] = test system: Pasteurella multocida
[4] = test system: Listeria innocua
[5] = test system: Staphylococcus epidermidis
[6] = test system: Streptococcus uberis
[7] = test system: Leuconostoc lactis
[8] = test system: Micrococcus luteus
[9] = test system: Bacillus cereus
[10] = test system: Staphylococcus aureus
[11] = test system: Bordetella bronchiseptica CUN 11844-99
[12] = test system: Pseudomonas aeruginosa CUN 4158-02
[13] = test system: Escherichia coli ATCC 25922
[14] = test system: Staphylococcus aureus ATCC 25923
[15] = test system: Fusarium oxysporum
[16] = test system: Escherichia coli SBS 363
[17] = test system: Streptococcus mutans
[18] = test system: Veillonella atypica PK1910
[19] = test system: Streptococcus sanguinis NY101
[20] = test system: Streptococcus gordonii Challis DL1
[21] = test system: Streptococcus mitis ATCC 903
[22] = test system: Lacticaseibacillus casei ATCC 4646
[23] = test system: Pseudomonas aeruginosa PAK
[24] = test system: Staphylococcus epidermidis ATCC 12228
[25] = test system: Pseudomonas aeruginosa ATCC 27853
[26] = test system: Enterococcus faecalis ATCC 29212
[27] = test system: Bacillus subtilis CMCC 63501
[28] = test system: Listeria monocytogenes CGMCC 1.1075
[29] = test system: Staphylococcus aureus ATCC 43300
[30] = test system: Pseudomonas aeruginosa PAO1
[31] = test system: Acinetobacter baumannii
[32] = test system: Escherichia coli K99
[33] = test system: Salmonella enterica subsp. enterica serovar Pullorum ATCC 7913
[34] = test system: Escherichia coli 078
[35] = test system: Escherichia coli UB1005
[36] = test system: Salmonella typhimurium ATCC 7731
[37] = test system: Escherichia coli K88
[38] = test system: Bacillus cereus CGMCC 1.932
[39] = test system: Salmonella enterica subsp. enterica serovar Typhimurium ATCC 14028

SMILES: NCC(=O)N[C@@H](CC(=O)O)C(=O)N[C@@H](CC(=O)O)C(=O)N[C@@H](CC(=O)O)C(=O)N[C@@H](CC(=O)O)C(=O)N[C@@H](CC(=O)O)C(=O)N[C@@H](CC(=O)O)C(=O)O [GDDDDDD]
MIC [1]: ≥ 60 µM

SMILES: CC[C@H](C)[C@H](NC(=O)CNC(=O)[C@H](CCC(=O)O)NC(=O)[C@@H](NC(=O)[C@@H](NC(=O)CNC(=O)[C@H](CO)NC(=O)[C@H](C)NC(=O)[C@H](CC(C)C)NC(=O)[C@H](CC(=O)O)NC(=O)CNC(=O)[C@H](C)NC(=O)[C@H](C)NC(=O)[C@H](CCC(N)=O)NC(=O)[C@H](CCCCN)NC(=O)[C@@H](NC(=O)[C@H](CCCCN)NC(=O)[C@H](CCC(N)=O)NC(=O)[C@H](Cc1c[nH]c2ccccc12)NC(=O)[C@H](CC(C)C)NC(=O)CN)[C@@H](C)CC)[C@@H](C)CC)C(C)C)C(=O)N[C@@H](CCCCN)C(=O)N[C@@H](CO)C(N)=O [GLWQKIKQAAGDLASGIVEGIKS]
MIC [2]: 21.1 µM (≈ 50 µg/mL)
MIC [3]: ≥ 42.2 µM
MIC [4]: ≥ 42.2 µM
MIC [5]: ≥ 42.2 µM
MIC [6]: ≥ 42.2 µM
MIC [7]: ≥ 42.2 µM
MIC [8]: 10.5 µM (≈ 25 µg/mL)
MIC [9]: ≥ 42.2 µM
MIC [10]: > 42.2 µM

SMILES: CC[C@H](C)[C@H](NC(=O)[C@@H]1CCCN1C(=O)[C@H](CC(C)C)NC(=O)[C@H](Cc1ccc(O)cc1)NC(=O)[C@H](CCCCN)NC(=O)[C@H](CCCCN)NC(=O)[C@H](CC(C)C)NC(=O)[C@H](C)NC(=O)[C@H](CO)NC(=O)[C@H](CC(C)C)NC(=O)[C@H](Cc1ccccc1)NC(=O)CN)C(=O)N[C@H](C(=O)N[C@@H](CC(C)C)C(=O)N[C@@H](CCCCN)C(=O)N[C@@H](Cc1cnc[nH]1)C(=O)N[C@H](C(=O)O)C(C)C)C(C)C [GFLSALKKYLPIVLKHV]
MIC [15]: 0.78 µM (≈ 1.5 µg/mL)
MIC [8]: 1.56 µM (≈ 3.01 µg/mL)
MIC [16]: 3.12 µM (≈ 6.02 µg/mL)

SMILES: CC[C@H](C)[C@H](NC(=O)[C@@H](NC(=O)[C@H](C)NC(=O)[C@H](C)NC(=O)[C@@H](NC(=O)[C@H](CCCCN)NC(=O)[C@H](CCCCN)NC(=O)[C@@H](NC(=O)[C@@H](NC(=O)[C@H](CC(=O)O)NC(=O)[C@H](Cc1ccccc1)NC(=O)[C@H](CC(C)C)NC(=O)CN)C(C)C)[C@@H](C)CC)C(C)C)C(C)C)C(=O)NCC(=O)NCC(=O)N[C@@H](CC(C)C)C(N)=O [GLFDVIKKVAAVIGGL]
MIC [2]: > 62.5 µM
MIC [3]: ≥ 62.5 µM
MIC [4]: ≥ 62.5 µM
MIC [5]: 15.6 µM (≈ 25 µg/mL)
MIC [6]: 15.6 µM (≈ 25 µg/mL)
MIC [7]: 3.75 µM (≈ 6 µg/mL)
MIC [8]: 7.5 µM (≈ 12 µg/mL)
MIC [9]: 31.3 µM (≈ 50 µg/mL)
MIC [10]: 15.6 µM (≈ 25 µg/mL)

SMILES: C[C@H](N)C(=O)N[C@@H](CC(=O)O)C(=O)N[C@@H](CC(=O)O)C(=O)N[C@@H](CC(=O)O)C(=O)N[C@@H](CC(=O)O)C(=O)N[C@@H](CC(=O)O)C(=O)N[C@@H](CC(=O)O)C(=O)O [ADDDDDD]
MIC [1]: ≥ 50 µM

Next, values leading:

MIC [11]: 6.54 µM (≈ 16 µg/mL)
MIC [12]: 26.1 µM (≈ 64 µg/mL)
MIC [13]: 26.1 µM (≈ 64 µg/mL)
MIC [14]: 26.1 µM (≈ 64 µg/mL)
SMILES: CC(C)C[C@H](NC(=O)CNC(=O)[C@H](CCCCN)NC(=O)[C@H](Cc1ccccc1)NC(=O)[C@H](CCCCN)NC(=O)[C@H](Cc1c[nH]c2ccccc12)NC(=O)[C@H](CCCN=C(N)N)NC(=O)[C@H](Cc1ccccc1)NC(=O)[C@H](CCCN=C(N)N)NC(=O)[C@H](CCCN=C(N)N)NC(=O)[C@H](Cc1ccc(O)cc1)NC(=O)[C@H](CCCCN)NC(=O)[C@H](CCCCN)NC(=O)CN)C(=O)N[C@@H](Cc1ccccc1)C(=O)N[C@@H](CC(C)C)C(=O)N[C@@H](Cc1ccccc1)C(=O)N[C@@H](CC(C)C)C(=O)NCC(N)=O [GKKYRRFRWKFKGLFLFLG]

MIC [17]: 16.3 µM (≈ 24 µg/mL)
MIC [18]: ≥ 43.3 µM
MIC [19]: ≥ 42.8 µM
MIC [20]: 21.7 µM (≈ 32 µg/mL)
MIC [21]: ≥ 42.8 µM
MIC [22]: 21.7 µM (≈ 32 µg/mL)
MIC [23]: ≥ 42.3 µM
MIC [10]: 42.3 µM (≈ 62.5 µg/mL)
SMILES: CC[C@H](C)[C@H](N)C(=O)N[C@@H](CCCCN)C(=O)N[C@@H](CCC(N)=O)C(=O)N[C@@H](CC(C)C)C(=O)N[C@@H](CC(C)C)C(=O)N[C@@H](Cc1cnc[nH]1)C(=O)N[C@@H](Cc1ccccc1)C(=O)N[C@@H](Cc1ccccc1)C(=O)N[C@@H](CCC(N)=O)C(=O)N[C@@H](CCCN=C(N)N)C(=O)N[C@@H](Cc1ccccc1)C(N)=O [IKQLLHFFQRF]

MIC [24]: 2 µM (≈ 3.52 µg/mL)
MIC [25]: 32 µM (≈ 56.3 µg/mL)
MIC [26]: 4 µM (≈ 7.04 µg/mL)
MIC [27]: 8 µM (≈ 14.1 µg/mL)
MIC [28]: 1 µM (≈ 1.76 µg/mL)
MIC [29]: 2 µM (≈ 3.52 µg/mL)
MIC [30]: 4 µM (≈ 7.04 µg/mL)
MIC [31]: 2 µM (≈ 3.52 µg/mL)
MIC [32]: 8 µM (≈ 14.1 µg/mL)
MIC [33]: 4 µM (≈ 7.04 µg/mL)
MIC [34]: 2 µM (≈ 3.52 µg/mL)
MIC [14]: 2 µM (≈ 3.52 µg/mL)
MIC [35]: 4 µM (≈ 7.04 µg/mL)
MIC [36]: 8 µM (≈ 14.1 µg/mL)
MIC [37]: 2 µM (≈ 3.52 µg/mL)
MIC [38]: 4 µM (≈ 7.04 µg/mL)
MIC [39]: 8 µM (≈ 14.1 µg/mL)
SMILES: NC(=O)[C@H](Cc1c[nH]c2ccccc12)NC(=O)[C@H](CCCN=C(N)N)NC(=O)[C@H](Cc1c[nH]c2ccccc12)NC(=O)[C@H](CCCN=C(N)N)NC(=O)[C@H](Cc1c[nH]c2ccccc12)NC(=O)[C@H](Cc1c[nH]c2ccccc12)NC(=O)[C@H](Cc1c[nH]c2ccccc12)NC(=O)[C@H](CCCN=C(N)N)NC(=O)[C@H](Cc1c[nH]c2ccccc12)NC(=O)[C@@H](N)CCCN=C(N)N [RWRWWWRWRW]

MIC [17]: 4.74 µM (≈ 5.65 µg/mL)
MIC [18]: ≥ 53.7 µM
MIC [19]: 13.4 µM (≈ 16 µg/mL)
MIC [20]: 26.8 µM (≈ 32 µg/mL)
MIC [21]: 26.8 µM (≈ 32 µg/mL)
MIC [22]: 13.4 µM (≈ 16 µg/mL)
SMILES: NC(=O)[C@H](Cc1ccccc1)NC(=O)[C@H](Cc1c[nH]c2ccccc12)NC(=O)[C@H](Cc1c[nH]c2ccccc12)NC(=O)[C@H](Cc1c[nH]c2ccccc12)NC(=O)[C@H](CCCN=C(N)N)NC(=O)[C@H](CCCN=C(N)N)NC(=O)[C@@H](N)CCCN=C(N)N [RRRWWWF]
